From US8791148B2, “Substituted benzimidazolone derivatives, medicaments comprising them and their use” (AbbVie Deutschland GmbH & Co. KG, priority 2006, dated 2014) come the findings set out here.

Where only a bound is given, the exact number is not on record here.

This assay deals with T1, human vasopressin V1b receptor (Homo sapiens, UniProt P47901).
T1 construct: expressed in transfected cells; host or cells: CHO-K1 (cell line hV1b-3H2_CHO), membrane preparation
T1 sequence (P47901 1-424): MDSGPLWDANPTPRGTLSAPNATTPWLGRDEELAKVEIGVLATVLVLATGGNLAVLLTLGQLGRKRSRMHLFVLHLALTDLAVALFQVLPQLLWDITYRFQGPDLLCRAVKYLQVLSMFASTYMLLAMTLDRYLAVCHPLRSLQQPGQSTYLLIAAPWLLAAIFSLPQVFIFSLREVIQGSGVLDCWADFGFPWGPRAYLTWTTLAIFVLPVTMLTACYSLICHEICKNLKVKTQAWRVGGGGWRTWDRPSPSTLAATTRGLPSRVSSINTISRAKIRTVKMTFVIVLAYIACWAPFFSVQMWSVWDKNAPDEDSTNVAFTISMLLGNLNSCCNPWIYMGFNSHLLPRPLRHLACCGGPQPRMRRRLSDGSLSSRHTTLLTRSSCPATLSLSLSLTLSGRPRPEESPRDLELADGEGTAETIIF
Description: Vasopressin V1b receptor binding assay. To be noted: membranes from CHO-K1 cells with stably expressed human V1b receptors; displacement of 1.5 nM 3H-AVP; read-out: V1b receptor affinity (affinity constant Ki). In a few lines: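 Membranes expressing human V1b receptor were incubated with radioligand and test compound (2% DMSO final) in 50 mM Tris, 10 mM MgCl2, 0.1% BSA, pH 7.4, for 60 min at room temperature, in triplicate. 1 uM AVP defined nonspecific binding. Bound ligand was separated by filtration and counted by scintillation; Ki came from nonlinear regression.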
`COc1ccccc1C(C(=O)N1CCN(C2CCN(C)CC2)CC1)n1c(=O)n(S(=O)(=O)c2cccc3cccnc23)c2ccc(Cl)cc21` (stereo not drawn) [Example 15, 5-Chloro-3-{1-(2-methoxyphenyl)-2-[4-(1-methylpiperidin-4-yl)piperazin-1-yl]-2-oxoethyl}-1-(quinoline-8-sulfonyl)-1,3-dihydrobenzimidazol-2-one]: the Ki lay within 500 to 10000 nM. Next, `COc1ccc(S(=O)(=O)n2c(=O)n(C(C(=O)N(C)CCN(C)C)c3ccccc3)c3cc(Cl)ccc32)cc1` (stereo not drawn) [Example 106, 2-[6-Chloro-3-(4-methoxybenzenesulfonyl)-2-oxo-2,3-dihydrobenzimidazol-1-yl]-N-(2-dimethylaminoethyl)-N-methyl-2-phenylacetamide]: under 100 nM. In the case of `COc1ccc(S(=O)(=O)n2c(=O)n(C(C(=O)N3CC[C@H](NC4CCN(C(C)(C)C)CC4)C3)c3ccccc3)c3cc(C#N)ccc32)cc1` (stereo partly drawn) [Example 244, 3-{2-[(S)-3-(1-tert-Butyl-piperidin-4-ylamino)-pyrrolidin-1-yl]-2-oxo-1-phenylethyl}-1-(4-methoxy-benzenesulfonyl)-2-oxo-2,3-dihydro-1H-benzoimidazole-5-carbonitrile], the Ki is under 100 nM.

As to `COc1ccccc1C(C(=O)N1CCN(c2ccncc2)CC1)n1c(=O)n(S(=O)(=O)c2cccc3cccnc23)c2ccc(Cl)cc21` (stereo not drawn) [Example 13, 5-Chloro-3-[1-(2-methoxyphenyl)-2-oxo-2-(4-pyridin-4-ylpiperazin-1-yl)-ethyl]-1-(quinoline-8-sulfonyl)-1,3-dihydrobenzimidazol-2-one], the Ki lay within 500 to 10000 nM. Turning to `COc1ccc(S(=O)(=O)n2c(=O)n(C(C(=O)N3CC[C@H](N4CCNCC4)C3)c3ccccc3)c3cc(C#N)ccc32)cc1` (stereo partly drawn) [Example 150, 1-(4-Methoxybenzenesulfonyl)-2-oxo-3-[2-oxo-1-phenyl-2-((S)-3-piperazin-1-ylpyrrolidin-1-yl)ethyl]-2,3-dihydro-1H-benzimidazole-5-carbonitrile], the Ki was under 100 nM. With `COc1ccc(S(=O)(=O)n2c(=O)n(C(C(=O)N3CC(N4CCNCC4)C3)c3ccccc3)c3cc(Cl)ccc32)cc1` (stereo not drawn) [Example 148, 5-Chloro-1-(4-methoxybenzenesulfonyl)-3-[2-oxo-1-phenyl-2-(3-piperazin-1-ylazetidin-1-yl)ethyl]-1,3-dihydrobenzimidazol-2-one], the Ki was in the range of 100 to 500 nM.

As for `COc1ccc(S(=O)(=O)n2c(=O)n(C(C(=O)N3CCC[C@@H](NC4CCN(C)CC4)C3)c3ccccc3)c3cc(C#N)ccc32)cc1` (stereo partly drawn) [Example 248, 1-(4-Methoxy-benzenesulfonyl)-3-{2-[(R)-3-(1-methyl-piperidin-4-ylamino)-piperidin-1-yl]-2-oxo-1-phenyl-ethyl}-2-oxo-2,3-dihydro-1H-benzoimidazole-5-carbonitrile], the Ki was 100 to 500 nM. The figure for `CCN1CCN(C[C@H]2CCN(C(=O)C(c3ccccc3)n3c(=O)n(S(=O)(=O)c4ccc(OC)cc4)c4ccc(C#N)cc43)C2)CC1` (stereo partly drawn) [Example 237, 3-{2-[(R)-3-(4-Ethyl-piperazin-1-ylmethyl)-pyrrolidin-1-yl]-2-oxo-1-phenyl-ethyl}-1-(4-methoxy-benzenesulfonyl)-2-oxo-2,3-dihydro-1H-benzoimidazole-5-carbonitrile; compound with trifluoroacetic acid] is under 100 nM; for `COc1ccc(S(=O)(=O)n2c(=O)n(C(C(=O)N3CC[C@H](NC(=O)OC(C)(C)C)C3)c3ccccc3)c3cc(C#N)ccc32)cc1` (stereo partly drawn) [Example 216, ((S)-1-{2-[6-Cyano-3-(4-methoxy-benzenesulfonyl)-2-oxo-2,3-dihydrobenzoimidazol-1-yl]-2-phenyl-acetyl}-pyrrolidin-3-yl)-carbamic acid tert-butyl ester] it is 500 to 10000 nM; for `CCCN1CCN([C@H]2CCN(C(=O)C(c3ccccc3)n3c(=O)n(S(=O)(=O)c4ccc(OCC(F)F)cc4)c4ccc(C#N)cc43)C2)CC1` (stereo partly drawn) [Example 233, 1-[4-(2,2-Difluoro-ethoxy)-benzenesulfonyl]-2-oxo-3-{2-oxo-1-phenyl-2-[(S)-3-(4-propyl-piperazin-1-yl)-pyrrolidin-1-yl]-ethyl}-2,3-dihydro-1H-benzoimidazole-5-carbonitrile] it is under 100 nM. As to `COc1ccc(S(=O)(=O)n2c(=O)n(C(C(=O)N3CC[C@@H](N)C3)c3ccccc3)c3cc(C#N)ccc32)cc1` (stereo partly drawn) [Example 172, 3-[2-((R)-3-Aminopyrrolidin-1-yl)-2-oxo-1-phenylethyl]-1-(4-methoxybenzenesulfonyl)-2-oxo-2,3-dihydro-1H-benzimidazole-5-carbonitrile], the Ki lay in the range of 500 to 10000 nM.

As to `COc1ccc(S(=O)(=O)n2c(=O)n(C(C(=O)N[C@H]3CCNC3)c3ccccc3)c3cc(Cl)ccc32)cc1` (stereo partly drawn) [Example 173, 2-[6-Chloro-3-(4-methoxybenzenesulfonyl)-2-oxo-2,3-dihydrobenzimidazol-1-yl]-2-phenyl-N—(S)-pyrrolidin-3-ylacetamide], the Ki lay within 500 to 10000 nM.

Regarding `CCCN1CCN([C@H]2CCN(C(=O)C(c3ccccc3)n3c(=O)n(S(=O)(=O)c4ccc(C)cn4)c4ccc(C#N)cc43)C2)CC1` (stereo partly drawn) [Example 204, 1-(5-Methylpyridine-2-sulfonyl)-2-oxo-3-{2-oxo-1-phenyl-2-[(S)-3-(4-propylpiperazin-1-yl)pyrrolidin-1-yl]ethyl}-2,3-dihydro-1H-benzimidazole-5-carbonitrile], the Ki was 100 to 500 nM. For `CCCN1CCN([C@H]2CCN(C(=O)C(c3ccccc3)n3c(=O)n(S(=O)(=O)c4ccc(OC)cc4OC)c4ccc(C#N)cc43)C2)CC1` (stereo partly drawn) [Example 199, 1-(2,4-Dimethoxybenzenesulfonyl)-2-oxo-3-{2-oxo-1-phenyl-2-[(S)-3-(4-propylpiperazin-1-yl)pyrrolidin-1-yl]ethyl}-2,3-dihydro-1H-benzimidazole-5-carbonitrile], the Ki is under 100 nM.

`COc1ccc(S(=O)(=O)n2c(=O)n(C(C(=O)N3CC[C@H](CN4CCN(C)CC4)C3)c3ccccc3)c3cc(C#N)ccc32)cc1` (stereo partly drawn) [Example 236, 1-(4-Methoxy-benzenesulfonyl)-3-{2-[(R)-3-(4-methyl-piperazin-1-ylmethyl)-pyrrolidin-1-yl]-2-oxo-1-phenyl-ethyl}-2-oxo-2,3-dihydro-1H-benzoimidazole-5-carbonitrile; compound with trifluoroacetic acid]: the Ki is under 100 nM. Next, `COc1ccc(S(=O)(=O)n2c(=O)n(C(C(=O)N3CCC(N4CCNCC4)C3)c3ccccc3)c3cc(Cl)ccc32)cc1` (stereo not drawn) [Example 146, 5-Chloro-1-(4-methoxybenzenesulfonyl)-3-[2-oxo-1-phenyl-2-(3-piperazin-1-ylpyrrolidin-1-yl)-ethyl]-1,3-dihydrobenzimidazol-2-one]: under 100 nM. For `COc1ccc(S(=O)(=O)n2c(=O)n(C(C(=O)N3CCCCC3)c3ccccc3)c3cc(Cl)ccc32)cc1` (stereo not drawn) [Example 101, 5-Chloro-1-(4-methoxybenzenesulfonyl)-3-(2-oxo-1-phenyl-2-piperidin-1-ylethyl)-1,3-dihydrobenzimidazol-2-one], the inhibitory constant (Ki) was in the range of 500 to 10000 nM.

Turning to `COc1ccc(S(=O)(=O)n2c(=O)n(C(C(=O)N3CC[C@H](NC4CCN(C(C)C)CC4)C3)c3ccccc3)c3cc(C#N)ccc32)cc1` (stereo partly drawn) [Example 208, 3-{2-[(S)-3-(1-Isopropylpiperidin-4-ylamino)pyrrolidin-1-yl]-2-oxo-1-phenylethyl}-1-(4-methoxybenzenesulfonyl)-2-oxo-2,3-dihydro-1H-benzimidazole-5-carbonitrile], the Ki was under 100 nM.
